# Assay results reported in the NIST ThermoML archive (doi:10.1016/j.fluid.2017.06.026).
# Numbers after ± are expanded uncertainties.
# Settings: 298.15 K, Ring tensiometer
structure (smiles),measurement,value
CCCCCOP(=O)(OCCCCC)OCCCCC [tripentyl phosphate],surface tension liquid-gas,26.2 ± 3 mN/m
"O=P(OCC(F)(F)C(F)(F)C(F)(F)C(F)F)(OCC(F)(F)C(F)(F)C(F)(F)C(F)F)OCC(F)(F)C(F)(F)C(F)(F)C(F)F [tris (1H,1H,5H-octafluoropentyl) phosphate]",surface tension liquid-gas,22.9 ± 3 mN/m
